Data published in the supplement of paper PMC10307832.

Assays:
Assay in all cases: relative viability (nuclei count vs DMSO), 5 days (fraction); higher = more cells survive
201T = test system: 201T
How it was run: (§1)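 Relative viability is defined as nuclei in treated wells over nuclei in vehicle wells. Duplicate plates were run and medians reported. Lung cancer cell lines in 1536-well plates were dosed by pin tool one day after seeding, with one drug or with a fixed anchor-drug dose plus five library-drug doses (not always all listed) in √10 steps, and nuclei were counted after 5 days.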

ABC-1 = test system: ABC-1
How it was run: as §1

CAL-12T = test system: CAL-12T
How it was run: as §1

ChaGo-K-1 = test system: ChaGo-K-1
How it was run: as §1

EMC-BAC-2 = test system: EMC-BAC-2
How it was run: as §1

H3255 = test system: H3255
How it was run: as §1

HOP-62 = test system: HOP-62
How it was run: as §1

LK-2 = test system: LK-2
How it was run: as §1

LXF-289 = test system: LXF-289
How it was run: as §1

NCI-H1651 = test system: NCI-H1651
How it was run: as §1

NCI-H1734 = test system: NCI-H1734
How it was run: as §1

O=c1[nH]c2ccccc2n1C1CCN(CCCC(c2ccc(F)cc2)c2ccc(F)cc2)CC1 [Pimozide] + CC(=O)c1c(C)c2cnc(Nc3ccc(N4CCNCC4)cn3)nc2n(C2CCCC2)c1=O [Palbociclib] (partner 0.5 µM)
relative viability (201T; first compound 0.08 µM): 0.363 | relative viability (201T; first compound 0.253 µM): 0.356 | relative viability (201T; first compound 0.8 µM): 0.337 | relative viability (201T; first compound 2.53 µM): 0.314 | relative viability (201T; first compound 8 µM): 0.342 | relative viability (ABC-1; first compound 0.08 µM): 0.527 | relative viability (ABC-1; first compound 0.253 µM): 0.565 | relative viability (ABC-1; first compound 0.8 µM): 0.874 | relative viability (ABC-1; first compound 2.53 µM): 0.614 | relative viability (ABC-1; first compound 8 µM): 0.462 | relative viability (CAL-12T; first compound 0.08 µM): 0.473 | relative viability (CAL-12T; first compound 0.253 µM): 0.416 | relative viability (CAL-12T; first compound 0.8 µM): 0.442 | relative viability (CAL-12T; first compound 2.53 µM): 0.295 | relative viability (CAL-12T; first compound 8 µM): 0.269 | relative viability (ChaGo-K-1; first compound 0.08 µM): 0.918 | relative viability (ChaGo-K-1; first compound 0.253 µM): 0.955 | relative viability (ChaGo-K-1; first compound 0.8 µM): 0.9 | relative viability (ChaGo-K-1; first compound 2.53 µM): 0.903 | relative viability (ChaGo-K-1; first compound 8 µM): 0.9 | relative viability (EMC-BAC-2; first compound 0.08 µM): 0.517 | relative viability (EMC-BAC-2; first compound 0.253 µM): 0.505 | relative viability (EMC-BAC-2; first compound 0.8 µM): 0.511 | relative viability (EMC-BAC-2; first compound 2.53 µM): 0.506 | relative viability (EMC-BAC-2; first compound 8 µM): 0.495 | relative viability (H3255; first compound 0.253 µM): 0.312 | relative viability (H3255; first compound 0.8 µM): 0.299 | relative viability (H3255; first compound 2.53 µM): 0.307 | relative viability (H3255; first compound 8 µM): 0.312 | relative viability (HOP-62; first compound 0.08 µM): 0.412 | relative viability (HOP-62; first compound 0.253 µM): 0.391 | relative viability (HOP-62; first compound 2.53 µM): 0.361 | relative viability (HOP-62; first compound 8 µM): 0.442 | relative viability (LK-2; first compound 0.08 µM): 0.646 | relative viability (LK-2; first compound 0.253 µM): 0.599 | relative viability (LK-2; first compound 0.8 µM): 0.698 | relative viability (LK-2; first compound 8 µM): 0.562 | relative viability (LXF-289; first compound 0.08 µM): 0.588 | relative viability (LXF-289; first compound 0.253 µM): 0.607 | relative viability (LXF-289; first compound 0.8 µM): 0.571 | relative viability (LXF-289; first compound 2.53 µM): 0.574 | relative viability (LXF-289; first compound 8 µM): 0.586 | relative viability (NCI-H1651; first compound 0.08 µM): 0.514 | relative viability (NCI-H1651; first compound 0.253 µM): 0.466 | relative viability (NCI-H1651; first compound 0.8 µM): 0.534 | relative viability (NCI-H1651; first compound 2.53 µM): 0.497 | relative viability (NCI-H1651; first compound 8 µM): 0.546 | relative viability (NCI-H1734; first compound 0.08 µM): 0.316 | relative viability (NCI-H1734; first compound 0.253 µM): 0.262 | relative viability (NCI-H1734; first compound 0.8 µM): 0.372 | relative viability (NCI-H1734; first compound 2.53 µM): 0.347 | relative viability (NCI-H1734; first compound 8 µM): 0.328
